Here are results for 1 molecule from patent US12509459B2, “Inhibitors of NLRP3 inflammasome” (BioAge Labs, Inc., priority 2024, dated 2025).

In assay [1] the target is T1, NLRP3 (Homo sapiens, UniProt Q96P20). Nature of the assay: Cryo-EM NLRP3 epitope determination. The class given is binding. The following applies: cryo-EM of NLRP3·Compound 007 complex, 3.00 Å resolution, FIG. 1. The arrangement: made in house; host or cells: Sf9 insect cells (baculovirus). The text has this: Compound 007 of the disclosure was used as an exemplary compound for determining the epitope to NLRP3, using cryogenic electron microscopy (cryo-EM).
Full length, human NLRP3 (3-1036, UniProt accession code Q96P20), codon-optimized for Spodoptera frugiperda, was cloned in an in-house modified pACE-Bac1 vector containing an N-terminal MBP-tag, followed by a Tobacco etch virus (TEV) protease cleavage site. For recombinant protein expression of MBP-NLRP3, 1 L of Sf9 insect cells were infected with 3% v/v viral stock of the second virus passage. The expression culture was incubated for 72 h at 27° C. and 80 rpm, and was subsequently harvested by centrifugation at 2000 rpm for 20 min. […] Elution fractions were analyzed by SDS-PAGE and negative stain electron microscopy (EM), before they were plunge frozen for cryo-EM analysis.
The purified NLRP3·Compound 007 complex was applied onto glow-discharged EM-grids (Quantifoil Cu300 R2/1+2 nm carbon support film), incubated for 30s at 100% humidity and 4° C., before it was blotted for 5s with blot force 5 and plunge frozen into liquid ethane using a Vitrobot mark IV plunge freezing device (Thermo Fisher Scientific). […] Using the blob picker, 3,114,152 particles were picked and detected of which 2,058,399 were extracted (search particle diameter […], 588 box size), of which 559,748 particles remained after multiple rounds of 2D classification. […]
Target sequence in this assay (Q96P20 3-1036): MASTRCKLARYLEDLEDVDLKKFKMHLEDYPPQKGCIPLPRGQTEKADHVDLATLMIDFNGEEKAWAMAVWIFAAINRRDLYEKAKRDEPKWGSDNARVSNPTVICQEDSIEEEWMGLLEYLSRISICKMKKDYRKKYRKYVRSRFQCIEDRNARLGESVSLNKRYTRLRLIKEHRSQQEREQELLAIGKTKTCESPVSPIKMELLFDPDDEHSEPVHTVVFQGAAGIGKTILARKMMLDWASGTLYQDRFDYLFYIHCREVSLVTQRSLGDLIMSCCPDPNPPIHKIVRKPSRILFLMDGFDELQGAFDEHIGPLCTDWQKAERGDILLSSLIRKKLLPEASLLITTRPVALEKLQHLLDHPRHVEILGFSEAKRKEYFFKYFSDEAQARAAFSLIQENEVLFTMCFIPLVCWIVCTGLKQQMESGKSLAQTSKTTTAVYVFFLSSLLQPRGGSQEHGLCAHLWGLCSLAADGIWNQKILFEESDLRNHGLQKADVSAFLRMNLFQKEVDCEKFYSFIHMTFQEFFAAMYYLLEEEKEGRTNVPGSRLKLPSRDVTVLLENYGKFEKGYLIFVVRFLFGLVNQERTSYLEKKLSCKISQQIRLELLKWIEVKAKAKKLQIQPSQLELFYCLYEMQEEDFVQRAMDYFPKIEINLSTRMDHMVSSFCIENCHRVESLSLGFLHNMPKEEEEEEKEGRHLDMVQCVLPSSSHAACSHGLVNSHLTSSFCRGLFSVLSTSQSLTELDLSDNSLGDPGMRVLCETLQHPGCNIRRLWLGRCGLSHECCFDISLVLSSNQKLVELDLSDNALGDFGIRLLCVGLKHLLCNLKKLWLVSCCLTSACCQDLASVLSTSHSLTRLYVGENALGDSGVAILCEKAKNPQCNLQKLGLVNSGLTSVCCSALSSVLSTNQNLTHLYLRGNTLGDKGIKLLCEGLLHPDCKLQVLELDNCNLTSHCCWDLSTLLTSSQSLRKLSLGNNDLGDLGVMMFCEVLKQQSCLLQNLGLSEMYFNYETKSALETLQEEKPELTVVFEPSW

Assay [2] has as its target T1, NLRP3. Nature of the assay: THP-1 cell-based NLRP3 activation assay. The arrangement: endogenous in cells; host or cells: THP-1 cells (PMA-differentiated, LPS-primed, nigericin-stimulated). The following applies: PMA-differentiated THP-1 cells, LPS 100 ng/mL then 10 μM nigericin. Put shortly: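 After 30 min compound preincubation, inflammasome activation was triggered with 10 μM nigericin (1 h) in LPS-primed (100 ng/mL, 3 h) THP-1 cells differentiated with PMA at 20 nM/24 h or 500 nM/3 h. CellTiter-Glo measured residual cell viability.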
Target sequence in this assay (Q96P20 whole entry): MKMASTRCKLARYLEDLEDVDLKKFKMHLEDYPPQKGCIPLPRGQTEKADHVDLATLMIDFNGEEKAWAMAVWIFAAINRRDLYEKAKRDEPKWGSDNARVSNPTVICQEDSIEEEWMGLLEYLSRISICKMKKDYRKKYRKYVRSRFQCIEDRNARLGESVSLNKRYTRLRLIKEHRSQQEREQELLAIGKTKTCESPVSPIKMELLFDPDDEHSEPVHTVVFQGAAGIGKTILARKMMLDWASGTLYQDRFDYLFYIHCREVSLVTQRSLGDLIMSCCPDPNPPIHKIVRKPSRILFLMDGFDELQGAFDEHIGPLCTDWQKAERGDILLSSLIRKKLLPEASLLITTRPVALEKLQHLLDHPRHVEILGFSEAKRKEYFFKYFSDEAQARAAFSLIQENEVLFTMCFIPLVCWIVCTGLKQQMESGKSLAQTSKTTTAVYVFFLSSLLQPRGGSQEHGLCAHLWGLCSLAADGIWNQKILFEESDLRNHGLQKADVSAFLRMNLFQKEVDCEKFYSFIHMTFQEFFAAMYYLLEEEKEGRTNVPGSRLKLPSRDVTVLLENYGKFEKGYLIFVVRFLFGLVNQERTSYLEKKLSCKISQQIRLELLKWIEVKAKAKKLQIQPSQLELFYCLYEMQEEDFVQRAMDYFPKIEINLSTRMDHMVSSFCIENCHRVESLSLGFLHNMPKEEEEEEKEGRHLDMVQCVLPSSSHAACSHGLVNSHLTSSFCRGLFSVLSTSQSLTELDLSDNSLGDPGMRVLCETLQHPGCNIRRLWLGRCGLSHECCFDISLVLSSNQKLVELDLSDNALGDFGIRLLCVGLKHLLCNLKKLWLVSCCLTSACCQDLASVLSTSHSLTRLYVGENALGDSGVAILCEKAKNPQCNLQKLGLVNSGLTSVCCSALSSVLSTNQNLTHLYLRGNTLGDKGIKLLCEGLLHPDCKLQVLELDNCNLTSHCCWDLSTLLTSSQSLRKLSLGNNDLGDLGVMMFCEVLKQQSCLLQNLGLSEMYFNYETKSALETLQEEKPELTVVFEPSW

For `CCOc1cc(C(=O)N(C)[C@H](CCO)c2cncc3cn[nH]c23)ccc1-c1cccc(F)c1` [Compound 007], on NLRP3 [1], the “binding site on NLRP3” value is given as “binds in a pocket on the surface of the NACHT domain of NLRP3”. For the same molecule, the IC50 (commonly the midpoint of a concentration-inhibition curve) against NLRP3 [2] is less than 100 nM.
